{"source": "paper PMC9666555", "about": "“Genuine selective caspase-2 inhibition with new irreversible small peptidomimetics” (Cell Death & Disease, 2022)", "key": {"HeLa cells": {"test_system": "HeLa cells", "test": "Vincristine-induced HeLa cell death (propidium iodide, flow cytometry)", "assay_type": "cell-based, human", "settings": "1 h pretreatment, 20 nM vincristine 44 h", "description": "(§1) HeLa cells (obtained from ATCC) were cultured in Dulbecco’s Modified Eagle Medium (DMEM, High Glucose, GlutaMAX™, Pyruvate) supplemented with antibiotics and 10% fetal calf serum (FCS) (Gibco, Life Technologies) and maintained in T75 Flasks at 1 × 10^6 cells per flask. Twenty-four hours before treatments, HeLa cells were transferred to 6-well plates (8 × 10^4 cells/well). The lymphoblastoid cell line Molt4cl8 was a gift from Dr. Bernard Krust (Inserm, University Paris 5) and was cultured in RPMI 1640 Glutamax medium supplemented with Hepes, antibiotics, and 10% FCS. HEK293 cells were obtained from ATCC (CRL-1573) and cultured in DMEM with Glutamax and 25 mM glucose (Life Technologies) supplemented with 10% FCS and antibiotics. For cell death induction, the following agents were added to cell cultures: Vincristine (Sigma) and Panobistat (LBH589; Selleck). Cell death was analyzed using fluorescence microscopy (Axio-observer Z1, Zeiss; equipped with CCD camera CoolsnapHQ2, Ropert Scientific) and cytofluorometry (MACSQuant® VYB; Miltenyi Biotec, Bergisch Gladbach, Germany) after labeling with propidium iodide (1 µg/mL; 10 min; 37 °C; Life Technologies) and Hoechst 33342 (1 µg/mL; 5 min; RT; Sigma).\nFig. 2 q33 and h33 are protective against the cytocidal effect of Vincristine. a Vincristine induces HeLa cell death. Cells were incubated for 44 h at 37 °C with 20 nM Vincristine (VCR), then incubated with propidium iodide at 2 μg/mL for 10 min and analyzed by flow cytometry to quantify plasma membrane permeabilization. Histograms show fluorescence intensity detected by flow cytometry (one representative experiment) in the presence (VCR) or Absence (Co.) of Vincristine. % of propidium iodide-positive cells are indicated for both conditions. b Dose–response of Vincristine-induced cell death. HeLa cells were incubated and treated as in (a) with the indicated doses of Vincristine (VCR) and analyzed by flow cytometry. […] Representative fluorescence microscopy micrographs of cells treated for 44 h with 20 nM vincristine (VCR) or not (Co.) and stained with Hoechst 33342. Vincristine induces progressive nuclear changes with first condensed nuclei (arrows) and then apoptotic bodies (dashed arrow). d Broad-spectrum irreversible caspase inhibitors prevent vincristine-induced cell death. HeLa cells were pretreated for 1 hr with the indicated broad-spectrum irreversible caspases inhibitors (z-VAD(OMe)-fmk at 30 μM, Q-VD-OPh 30 μM, Emricasan 10 μM, or the negative control Q-VE-OPh 30 μM), then treated with vincristine as in panel (a), and analyzed by flow cytometry. Histograms show the mean ± SD of 3 independent experiments (***p value < 0.001). e Effect of the reversible Caspase-2 inhibitors q33 and h33 against vincristine-induced cell death. HeLa cells were pretreated for 1 h with the indicated doses of q33 or h33, then treated with vincristine as in panel a, and analyzed by flow cytometry. Histograms show the mean ± SD of three independent experiments (*p value < 0.1). TEXT PRINTED IN THE PICTURE: (a) VCR: 39,5 % DOUBTS OF THE COPYIST ABOUT THIS PICTURE: Panel a: the picture prints no measure beside \"39,5 %\" and \"4.1%\". I assigned 39,5 % to VCR only because it stands by the grey VCR peak. / Panel a: \"4.1%\" seems to belong to the untreated control (Co.). That is not a substance, so it is left out.\nFig. 5 LJ2 inhibits cell death induced by microtubule destabilization and hydroxamic acid-based deacetylase (HDAC) inhibition. a Effect of the irreversible Caspase-2 inhibitors LJ2 against vincristine-induced cell death. HeLa cells were pretreated for 1 h with the indicated doses of LJ2, Q-VD-OPh, or Q-LETD-OPh, then treated with vincristine (VCR) as in Fig. 2, then incubated with propidium iodide at 2 μg/mL for 10 min and analyzed by flow cytometry. Histogram data are mean ± SD (n = 3, *p value < 0.01). b Effect of Caspases-inhibitors against Panobistat (LBH589)-induced cell death. […]"}, "[1]": {"test_system": "Molt4 lymphoid human cells", "test": "Panobistat (LBH589)-induced cell death in Molt4 cells (propidium iodide, flow cytometry)", "assay_type": "cell-based", "settings": "Molt4, 1 h pretreatment (30 µM or indicated doses), 25 nM LBH589 24 h", "description": "as §1\nFig. 5 LJ2 inhibits cell death induced by microtubule destabilization and hydroxamic acid-based deacetylase (HDAC) inhibition. a Effect of the irreversible Caspase-2 inhibitors LJ2 against vincristine-induced cell death. HeLa cells were pretreated for 1 h with the indicated doses of LJ2, Q-VD-OPh, or Q-LETD-OPh, then treated with vincristine (VCR) as in Fig. 2, then incubated with propidium iodide at 2 μg/mL for 10 min and analyzed by flow cytometry. […] Molt4 lymphoid human cells where were pretreated for 1 h with 30 µM of LJ2, Q-VD-OPh, or Belnacasan (VX-765), then treated for 24 h with 25 nM of LBH589, then incubated with propidium iodide as in (a) and analyzed by flow cytometry. […] Molt4 cells were treated as in (b) with the indicated doses of LJ2 or Q-VD-OPh and analyzed by flow cytometry. […]"}, "[2]": {"parameters": "method as in PMID 31870950, PMID 31887369", "settings": "cited from earlier work"}, "recombinant human Casp2": {"molecular_target": "T1, recombinant human Casp2 (Homo sapiens, UniProt P42575)", "T1 sequence (P42575 170-325 limits assumed)": "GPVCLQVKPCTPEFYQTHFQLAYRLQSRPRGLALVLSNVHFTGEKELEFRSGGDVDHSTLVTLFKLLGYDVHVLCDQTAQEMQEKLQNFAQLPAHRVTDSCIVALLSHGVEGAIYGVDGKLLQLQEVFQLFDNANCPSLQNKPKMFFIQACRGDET", "T1 sequence (P42575 348-452 limits assumed)": "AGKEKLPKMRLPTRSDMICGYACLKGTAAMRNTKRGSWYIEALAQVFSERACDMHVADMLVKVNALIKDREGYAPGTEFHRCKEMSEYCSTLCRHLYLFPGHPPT", "test": "Enzyme mechanistic studies (Ki, k3, k3/KI), Caspase-2", "assay_type": "biochemical", "settings": "irreversible inhibitors, progress curve method", "description": "(§2) For reversible inhibitors, the mechanisms of inhibition were determined by varying substrate and inhibitor concentrations and using Lineweaver−Burk representations to determine the inhibition constants Ki of competitive inhibitors (Ki = [E][I]/[EI]). For suicide inhibitors, inactivation can be represented by the minimum kinetic scheme (Eq. 2), where E and I are the free forms of enzyme and inhibitor, E * I a kinetic chimera of the Michaelis complex and E − I the covalent complex (inactivated enzyme).2 E+I⇄KIE*I→k3E−I\n(§3) KI and k3 are the kinetic constants characterizing the inactivation process and the k3/KI ratio is an index of the inhibitory potency. The first-order rate constant, k3, and the apparent dissociation constant, KI, were determined for Caspase-2 and -3 using the progress curve method. Briefly, the enzyme activities were measured continuously for 120 min. To determine the kinetic parameters, progress curves were obtained at several inhibition concentrations using fixed substrate concentration. The product released for each inhibitor concentration was plotted versus the time following Eq. 3 where the constant π depended on [I]’, a modified inhibitor concentration due to substrate competition, according to Eq. 4. [I]’ is defined by Eq. 5, where KM was Michaelis constant for the enzymatic hydrolysis of the appropriate fluorogenic substrate. The ratio k3/KI was obtained by fitting the experimental data to the equations (F.U., fluorescence unit):3 F.U.=∫0tvidt+F.U0−vo×e^−π×t/π+F.U.0 4 π=k3×[I]^′/KI+[I]^′ 5 [I]^′=[I]/1+S/KM\nLinear and nonlinear regression fits of the experimental data to the equations were performed with KaleidaGraph software. The experimental conditions were [Caspase-2]0 = 0.2 nM, [Ac-VDVAD-AMC]0 = 25 µM and [Caspase-3]0 = 0.1 nM, [Ac-DEVD-AMC]0 = 10 µM; [I]0 = 0–100 µM."}, "recombinant human Casp3": {"molecular_target": "T2, recombinant human Casp3 (Homo sapiens, UniProt P42574)", "T2 sequence (P42574 29-175 limits assumed)": "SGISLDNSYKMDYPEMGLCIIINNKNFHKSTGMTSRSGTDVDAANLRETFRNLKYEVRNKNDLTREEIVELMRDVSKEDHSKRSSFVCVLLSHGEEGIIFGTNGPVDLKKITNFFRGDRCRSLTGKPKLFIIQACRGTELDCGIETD", "T2 sequence (P42574 176-277 limits assumed)": "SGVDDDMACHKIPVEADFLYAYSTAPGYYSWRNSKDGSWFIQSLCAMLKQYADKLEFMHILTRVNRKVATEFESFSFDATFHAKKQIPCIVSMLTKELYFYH", "test": "Enzyme mechanistic studies (Ki, k3, k3/KI), Caspase-3", "assay_type": "biochemical", "settings": "irreversible inhibitors, progress curve method", "description": "as §2, §3\nLinear and nonlinear regression fits of the experimental data to the equations were performed with KaleidaGraph software."}, "[3]": {"parameters": "method as in PMID 21881605", "settings": "cited from earlier work"}}}
{"smiles": "CC(C)[C@H](NC(=O)c1ccc2ccccc2n1)C(=O)N[C@@H](CC(=O)O)C(=O)COc1c(F)cccc1F", "note": "[Q-VD-OPh]", "values": [{"measurement": "inhibition of vincristine-induced cell death", "setting": "HeLa cells; inhibitor 30 µM", "value": "> 90", "unit": "%"}, {"measurement": "effect against Panobistat (LBH589)-induced cell death", "setting": "[1]", "value": "strongly inhibited cell death"}]}
{"smiles": "C[C@H](NC(=O)C(=O)Nc1ccccc1C(C)(C)C)C(=O)N[C@@H](CC(=O)O)C(=O)COc1c(F)c(F)cc(F)c1F", "note": "[Emricasan]", "values": [{"measurement": "inhibition at 10 µM", "setting": "HeLa cells; Homo sapiens, inhibitor 10 µM", "value": 95, "unit": "%"}, {"measurement": "efficacy in large clinical phase 3 studies for the treatment of NASH", "setting": "[2]", "value": "failed to demonstrate efficacy"}, {"measurement": "toxicity on chronic administration in humans", "setting": "[2]", "value": "not toxic nor carcinogenic"}]}
{"smiles": "CCO[C@@H]1OC(=O)C[C@@H]1NC(=O)[C@@H]1CCCN1C(=O)[C@@H](NC(=O)c1ccc(N)c(Cl)c1)C(C)(C)C", "note": "[Belnacasan, (S)-1-((S)-2-{[1-(4-amino-3-chloro-phenyl)-methanoyl]-amino}-3,3-dimethyl-butanoyl)-pyrrolidine-2-carboxylic acid ((2R,3S)-2-ethoxy-5-oxo-tetrahydro-furan-3-yl)-amide]", "values": [{"measurement": "effect against Panobistat (LBH589)-induced cell death", "setting": "[1]", "value": "did not affect cell death"}]}
{"smiles": "COC(=O)CC(NC(=O)[C@H](C)NC(=O)C(NC(=O)[C@H](CC(=O)OC)NC(=O)[C@@H](NC(=O)c1ccc2ccccc2n1)C(C)C)C(C)C)C(=O)COc1c(F)cccc1F", "note": "(stereo in doubt) [TRP601, Quinolin-2-carbonyl-VD(OMe)VAD(OMe)-CH2-O(2,6F2)Ph, reference compound]", "values": [{"measurement": "Casp2 k3", "setting": "recombinant human Casp2", "value": "5,56 ms^−1"}, {"measurement": "KI (inactivation)", "setting": "recombinant human Casp2", "value": 378, "unit": "nM"}, {"measurement": "Casp3 k3", "setting": "recombinant human Casp3", "value": "4,24 ms^−1"}, {"measurement": "Casp3 k3/KI", "setting": "recombinant human Casp3", "value": "25 126 M^−1 s^−1"}, {"measurement": "KI (inactivation)", "setting": "recombinant human Casp3", "value": 209, "unit": "nM"}, {"measurement": "neuroprotection", "setting": "[3]; after intraperitoneal and intraveinous administration", "value": "confer neuroprotection"}, {"measurement": "Casp2 in the brain", "setting": "[3]", "value": "inhibit Casp2 in the brain"}, {"measurement": "toxicity in regulatory rodent and non-rodent studies", "setting": "[3]", "value": "non-toxic"}]}
